These results are taken from patent US20250320213A1, “Nitrogen-Containing Heterocyclic Compounds” (Pfizer Inc., priority 2024, published 2025).

For one test, the target named is T1, STAT6 (Homo sapiens, UniProt P42226).
T1 construct: stably transfected HaCaT keratinocyte cell line, which expresses NanoLuc luciferase reporter gene under the transcriptional control of the STAT6 responsive promoter; endogenous in cells; host or cells: HaCaT keratinocyte reporter cell line (stably transfected with a NanoLuc reporter)
T1 sequence (P42226 1-847): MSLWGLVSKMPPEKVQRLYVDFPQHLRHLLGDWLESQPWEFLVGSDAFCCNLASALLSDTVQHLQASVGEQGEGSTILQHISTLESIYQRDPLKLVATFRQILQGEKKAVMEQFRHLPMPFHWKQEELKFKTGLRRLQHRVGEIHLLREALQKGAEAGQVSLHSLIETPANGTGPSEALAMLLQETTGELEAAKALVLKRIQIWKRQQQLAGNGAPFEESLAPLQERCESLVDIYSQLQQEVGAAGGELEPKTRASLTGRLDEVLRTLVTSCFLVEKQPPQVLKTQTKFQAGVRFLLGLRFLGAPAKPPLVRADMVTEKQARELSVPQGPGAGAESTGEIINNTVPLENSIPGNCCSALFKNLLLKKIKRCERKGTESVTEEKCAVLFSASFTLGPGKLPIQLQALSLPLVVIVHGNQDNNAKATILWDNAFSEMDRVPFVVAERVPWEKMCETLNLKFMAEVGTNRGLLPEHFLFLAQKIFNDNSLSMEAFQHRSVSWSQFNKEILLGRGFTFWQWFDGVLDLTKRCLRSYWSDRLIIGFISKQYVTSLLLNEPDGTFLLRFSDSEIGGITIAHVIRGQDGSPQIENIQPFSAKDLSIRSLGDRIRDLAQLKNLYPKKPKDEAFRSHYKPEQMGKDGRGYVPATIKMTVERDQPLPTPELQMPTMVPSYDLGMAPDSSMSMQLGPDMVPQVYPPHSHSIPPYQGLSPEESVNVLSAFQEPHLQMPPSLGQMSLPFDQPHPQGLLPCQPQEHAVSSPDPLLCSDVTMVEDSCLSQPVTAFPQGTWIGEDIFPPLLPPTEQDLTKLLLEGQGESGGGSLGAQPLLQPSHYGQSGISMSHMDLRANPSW
Nature of the test: STAT6 Reporter Luciferase Assay (IL-13 stimulated HaCaT keratinocyte NanoLuc reporter cells). Format: cell-based. Conditions: read-out: Reporter EC50. Put shortly: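 HaCaT cells stably carrying a NanoLuc reporter driven by the STAT6-responsive IL-13Ra2 promoter were preincubated with compounds for 2 h at 37 °C in 2% FBS medium. Cells were then stimulated with 0.12 nM IL-13 for 4 h, and luminescence was read after Nano-Glo substrate. Compounds ran as 11-point 4-fold dilutions in duplicate.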

Test [1] concerns CCL17 secretion in peripheral human whole blood. The experiment in a line: Human Whole Blood (HWB) CCL17 TR-FRET Assay (IL-13 stimulated CCL17 secretion). Format: cell-based. Conditions: Homo sapiens, 48 h. How it is done:
The IC50 (half-maximal concentration required for inhibition) of compounds for the inhibition of CCL17 secretion in peripheral human whole blood, stimulated through the IL-13-IL-13 receptor/IL-4 receptor pathway was evaluated with a TR-FRET sandwich ELISA CCL17 (TARC) Assay Kit (Bioauxilium).
Test compounds (solubilized and serially diluted in DMSO, in an 11 point, 3-fold dilution series in duplicate) were spotted, 80 nL per well, into a 384 well v-bottom polypropylene plate. Human whole blood was collected from a peripheral vein, 714 units of sodium heparin was added for every 50 mL of blood collected. Sixty μL per well of blood was added to the compound plate. The blood plate was incubated for two hours at 37° C. After two hours, CCL17 production was stimulated with the addition of 20 μL per well of IL13 (R&D Systems) in HBSS with calcium and magnesium, with a final concentration of 10 ng/mL IL13. The plate containing blood, compound, and IL-13 was incubated at 37° C. for 48 hours, to allow for CCL17 production. After 48 hours, the plate was centrifuged at 1,500 revolutions per minute (RPM) for 7 minutes, with no braking. The CCL17 TR-FRET Assay Kit detection reagent was prepared according to kit instructions and 4 μL per well of the antibody cocktail was added to a 384-well white low volume non-binding coated plate (Corning). Sixteen μL of serum from the centrifuged blood plate was transferred to the detection plate containing the TR-FRET antibody cocktail. The plate was centrifuged briefly, then covered and incubated 16 hours at room temperature. The plate was then read on an EnVision 2105 multilabel reader (PerkinElmer) with settings for TR-FRET Ratio=10,000×(fluorescence intensity 665 nm/fluorescence intensity 615 nm).
(Time-resolved FRET reads energy transfer from a long-lived donor to a nearby acceptor.)

Where [2] appears, read: IL-13 stimulated HaCaT STAT6 NanoLuc reporter cells.
The mark [3] stands for this setting: human whole blood, 10 ng/mL IL13, 48 hours.
Setting [4] is: human whole blood, IL-13 stimulated.
The mark [5] stands for this setting: human whole blood, IL-13 10 ng/mL.

Like-named read-outs stand apart in the source and are kept apart here.

For `CC(C)n1nc(C(=O)NCc2ccc(NC(=O)C3CCN(C)CC3)cc2)c2c1[C@@H](C)CN(c1ccc(C(=O)N(C)C)cc1)C2` [Example 585, (S)-5-(4-(dimethylcarbamoyl)phenyl)-1-isopropyl-7-methyl-N-(4-(1-methylpiperidine-4-carboxamido)benzyl)-4,5,6,7-tetrahydro-1H-pyrazolo[4,3-c]pyridine-3-carboxamide], on STAT6 (setting [2]), the EC50 amounted to 6 nM. In test [1] (setting [3]), this molecule had an IC50 of 37 nM.

Consider `CC(C)n1nc(C(=O)NCc2ccc(NC(=O)N(C)C)cc2)c2c1CCN(c1ccc(C3COC3)cn1)C2` [Example 338, N-(4-(3,3-Dimethylureido)benzyl)-1-isopropyl-5-(5-(oxetan-3-yl)pyridin-2-yl)-4,5,6,7-tetrahydro-1H-pyrazolo[4,3-c]pyridine-3-carboxamide], for which the EC50 on STAT6 (setting [2]) turned out to be 3110 nM. The IC50 in test [1] (setting [4]) was more than 30000 nM.

Take `C[C@H]1c2c(C(=O)NCc3ccc(NC(=O)N(C)C)cc3)nn(C)c2CCN1c1ccc(C(=O)N(C)C)cn1` (single isomer, unassigned) [Example 444]: the EC50 on STAT6 (setting [2]) turned out to be 158 nM. Moreover, it took 1380 nM to reach half-maximal inhibition in test [1] (setting [4]) (IC50).

For `CC(C)n1nc(C(=O)NCc2ccc(NC(=O)N3CCC(CC4CCNCC4)CC3)cc2)c2c1[C@@H](C)CN(c1ccc(C(=O)N(C)C)cc1)C2` [Example 624, (S)-5-(4-(dimethylcarbamoyl)phenyl)-1-isopropyl-7-methyl-N-(4-(4-(piperidin-4-ylmethyl)piperidine-1-carboxamido)benzyl)-4,5,6,7-tetrahydro-1H-pyrazolo[4,3-c]pyridine-3-carboxamide], the EC50 at STAT6 (setting [2]) was found to be 1 nM. In addition, in test [1] (setting [3]), the IC50 was found to be 18 nM.

Turning to `C[C@@H]1CN(c2ccc(C(=O)N(C)C)cn2)Cc2c(C(=O)NCc3ccc(NC(=O)N(C)C)cc3)nn(C3CCC3)c21` (single isomer, unassigned) [Example 557], at STAT6 (setting [2]), the EC50 stood at 15 nM. Further, the IC50 in test [1] (setting [3]) came out at 204 nM.

`CC(C)n1nc(C(=O)NCc2ccc(NC(=O)C3CCN(C)CC3)c(F)c2)c2c1[C@@H](C)CN(c1ccc(C(=O)N(C)C)cc1)C2` [Example 721, (S)-5-(4-(dimethylcarbamoyl)phenyl)-N-(3-fluoro-4-(1-methylpiperidine-4-carboxamido)benzyl)-1-isopropyl-7-methyl-4,5,6,7-tetrahydro-1H-pyrazolo[4,3-c]pyridine-3-carboxamide]: the EC50 on STAT6 (setting [2]) amounted to 12 nM. The molecule also yielded an IC50 in test [1] (setting [5]) of 102 nM.

As to `CCn1nc(C(=O)NCc2ccc(NC(=O)N(C)C)cc2)c2c1C(C(F)(F)F)CN(c1ccc(C(=O)N(C)C)cn1)C2` (racemic) [Example 282, rac-(R)-5-(5-(dimethylcarbamoyl)pyridin-2-yl)-N-(4-(3,3-dimethylureido)benzyl)-1-ethyl-7-(trifluoromethyl)-4,5,6,7-tetrahydro-1H-pyrazolo[4,3-c]pyridine-3-carboxamide], the EC50 at STAT6 (setting [2]) came out at 1 nM. The same molecule gave an IC50 in test [1] (setting [4]) of 9 nM.

On to `CNC(=O)Nc1ccc(CNC(=O)c2nn(C(C)C)c3c2CN(c2ncc(-c4nccn4C)cn2)C[C@@H]3C)cc1` (single isomer, unassigned) [Example 515], for which the EC50 on STAT6 (setting [2]) turned out to be 1 nM. Further, the IC50 in test [1] (setting [4]) came to 6 nM.

Consider `CN(C)C(=O)Nc1ccc(CN2CCCn3nc4c(c3C2=O)CN(c2ccc(C(=O)N(C)C)cn2)CC4)cc1` [Example 252, 6-(10-(4-(3,3-Dimethylureido)benzyl)-11-oxo-1,3,4,7,8,9,10,11-octahydro-2H-pyrido[4′,3′:3,4]pyrazolo[1,5-a][1,4]diazepin-2-yl)-N,N-dimethylnicotinamide], for which the EC50 at STAT6 (setting [2]) was found to be 385 nM. The same molecule registered an IC50 in test [1] (setting [4]) of 1130 nM.

Consider `CC(C)n1nc(C(=O)NCc2ccc(NC(=O)N(C)CC(F)F)cc2)c2c1[C@@H](C)CN(c1ccc(C(=O)N(C)C)cn1)C2` [Example 598, (S)-N-(4-(3-(2,2-difluoroethyl)-3-methylureido)benzyl)-5-(5-(dimethylcarbamoyl)pyridin-2-yl)-1-isopropyl-7-methyl-4,5,6,7-tetrahydro-1H-pyrazolo[4,3-c]pyridine-3-carboxamide], for which the EC50 at STAT6 (setting [2]) amounted to 1 nM. Also, half-maximal inhibition in test [1] (setting [3]) (IC50) was put at 13 nM.

Turning to `CN(C)C(=O)Nc1ccc(CNC(=O)c2nn(CC3CCC3)c3c2CN(c2ccc(C(=O)N(C)C)cn2)CC3)cc1` [Example 257, 1-(cyclobutylmethyl)-5-(5-(dimethylcarbamoyl)pyridin-2-yl)-N-(4-(3,3-dimethylureido)benzyl)-4,5,6,7-tetrahydro-1H-pyrazolo[4,3-c]pyridine-3-carboxamide], the EC50 at STAT6 (setting [2]) amounted to 15 nM. Further, the IC50 in test [1] (setting [4]) worked out at 272 nM.

In the case of `CC(C)n1nc(C(=O)NCc2ccc(-c3ccn(C)n3)cc2)c2c1[C@@H](C)CN(c1ccc(C(=O)N(C)C)cc1)C2` [Example 725, (S)-5-(4-(dimethylcarbamoyl)phenyl)-1-isopropyl-7-methyl-N-(4-(1-methyl-1H-pyrazol-3-yl)benzyl)-4,5,6,7-tetrahydro-1H-pyrazolo[4,3-c]pyridine-3-carboxamide], on STAT6 (setting [2]), the EC50 was found to be 177 nM. Moreover, the IC50 in test [1] (setting [5]) is 4460 nM.

As for `CC(C)n1nc(C(=O)NCc2ccc(NC(=O)N(C)C)cc2)c2c1CCN(c1ccc(N3C(=O)CCC34CC4)cn1)C2` [Example 73, N-(4-(3,3-dimethylureido)benzyl)-1-isopropyl-5-(5-(5-oxo-4-azaspiro[2.4]heptan-4-yl)pyridin-2-yl)-4,5,6,7-tetrahydro-1H-pyrazolo[4,3-c]pyridine-3-carboxamide], the EC50 on STAT6 (STAT6 NanoLuc luciferase reporter, IL-13 stimulated HaCaT keratinocyte cells) worked out at 121 nM. In addition, in test [1] (inhibition of CCL17 secretion in human whole blood, 10 ng/mL IL13, 48 hours), half-maximal inhibition (IC50) was put at 9350 nM.

`CCC1Cc2c(c(C(=O)NCc3ccc(NC(=O)N(C)C)cc3)nn2C)CN1c1ccc(C(=O)N(C)C)cn1` (racemic) [Example 260, rac-(R)-5-(5-(dimethylcarbamoyl)pyridin-2-yl)-N-(4-(3,3-dimethylureido)benzyl)-6-ethyl-1-methyl-4,5,6,7-tetrahydro-1H-pyrazolo[4,3-c]pyridine-3-carboxamide]: the EC50 on STAT6 (setting [2]) is 10 nM. The molecule further had an IC50 in test [1] (setting [4]) of 64 nM.

`CCC1CN(c2ccc(C(=O)N(C)C)cn2)Cc2c(C(=O)NCc3ccc(NC(=O)N(C)C)cc3)nn(C(C)C)c21` (racemic) [Example 246, rac-(R)-5-(5-(dimethylcarbamoyl)pyridin-2-yl)-N-(4-(3,3-dimethylureido)benzyl)-7-ethyl-1-isopropyl-4,5,6,7-tetrahydro-1H-pyrazolo[4,3-c]pyridine-3-carboxamide]: the EC50 at STAT6 (setting [2]) was found to be 1 nM. The same molecule gave an IC50 in test [1] (setting [4]) of 10 nM.

As to `CC(C)n1nc(C(=O)NCc2ccc(NC(=O)N3CCNCC3)cc2)c2c1[C@@H](C)CN(c1ccc(C(=O)N(C)C)cc1)C2` [Example 525, (S)-5-(4-(dimethylcarbamoyl)phenyl)-1-isopropyl-7-methyl-N-(4-(piperazine-1-carboxamido)benzyl)-4,5,6,7-tetrahydro-1H-pyrazolo[4,3-c]pyridine-3-carboxamide], at STAT6 (setting [2]), the concentration for a half-maximal effect (EC50) turned out to be 2 nM. For the same molecule, in test [1] (setting [4]), the IC50 turned out to be 7 nM.

In general, EC50 refers to the concentration needed to bring the measured effect to its halfway point. As a reminder, the IC50 is the concentration needed to halve the response being measured. Low values mean greater potency, high ones weaker potency.
